# Source: publication PMC12040969, “Design, synthesis, in silico studies, and apoptotic antiproliferative activity of novel thiazole-2-acetamide derivatives as tubulin polymerization inhibitors” (Frontiers in Chemistry, 2025)
# Where “and” joins values, the source holds several entries; their conditions need not be identical. Equal entries are not always repeated.
# What was measured:
# [1] = Cell viability assay (MTT), normal cells; format: cell-based; conditions: human, MCF-10A normal mammary gland epithelial cells, four-day incubation
# [2] = test system: Caspase-3 in MDAMB-231 cancer cell line; assay: Caspase-3 activation assay; format: cell-based, human; conditions: MDAMB-231 cells
# Source text: (§1) […]. Supplementary Appendix A provides more information.
# [3] = test system: Caspase-9 in MDAMB-231 cancer cell line; assay: Caspase-9 activation assay; format: cell-based, human; conditions: MDAMB-231 cells
# Method: […]. Compound 10o was the least efficient derivative as caspase-9 activators (0.90 ng/mL).
# as §1
# [4] = test system: Bax in MDAMB-231 cancer cell line; assay: Bax level assay; format: cell-based, human; conditions: MDAMB-231 cells
# Source text: as §1
# [5] = test system: Bcl-2 in MDAMB-231 cancer cell line; assay: Bcl-2 level assay; format: cell-based, human; conditions: MDAMB-231 cells
# Source text: as §1
# [6] = test system: prostatic - PC-3; assay: Antiproliferative assay (MTT) PC-3; conditions: for IC50: read-out: Antiproliferative activity IC50 ± SEM (µM) PC-3, PC-3, MTT
# [7] = test system: breast - MCF-7; assay: Antiproliferative assay (MTT) MCF-7; conditions: for IC50: read-out: Antiproliferative activity IC50 ± SEM (µM) MCF-7, MCF-7, MTT
# [8] = test system: colon - HCT-116; assay: Antiproliferative assay (MTT) HCT-116; conditions: for IC50: read-out: Antiproliferative activity IC50 ± SEM (µM) HCT-116, HCT-116, MTT
# [9] = test system: tubulin; assay: Tubulin polymerization inhibition assay (Cytoskeleton kit); conditions: for Tub %inh: 30 min, YB-EGY run; for Tub K.Activity: EC = 120, YB-EGY run; for IC50: read-out: Tubulin inhibition IC50 ± SEM, triplicate for each tested concentration;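 for all read-outs here: Cell-free tubulin polymerization read by fluorescent reporter enhancement over a 30 min reaction, with the compound-free kit control taken as 100% activity and inhibition relative to it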
# [10] = test system: - MDAMB-231; assay: Antiproliferative assay (MTT) MDAMB-231
# [11] = test system: pancreatic - MDAMB-231; assay: Antiproliferative assay (MTT) MDAMB-231; conditions: read-out: Antiproliferative activity IC50 ± SEM (µM) MDAMB-231; MDAMB-231, MTT
# [12] = test system: four human cancer cell lines (HCT-116, PC-3, MCF-7, MDAMB-231); assay: Antiproliferative assay, mean of four cell lines (GI50); conditions: for Reduced potency compared to doxorubicin (GI50) / Reduced potency compared to sorafenib (GI50): GI50 ratio; for IC50: Homo sapiens, read-out: GI50 (average IC50)
smiles,measurement,setting,value
"Cc1nc(SCC(=O)Nc2nc(-c3ccccc3)cs2)sc1C(=O)/C=C/c1ccccc1 [Compound 10a, (E)-2-((5-cinnamoyl-4-methylthiazol-2-yl)thio)-N-(4-phenylthiazol-2-yl)acetamide]","viability at 96 h, 50 µM",[1],87%
same,Caspase-3 Conc,[2],625 ± 5 pg/mL
same,Caspase-9 Conc,[3],1.60 ng/mL and 1.60 ± 0.10 ng/mL
same,Bax Conc,[4],305 pg/mL and 305 ± 8 pg/mL
same,Bcl-2 Conc,[5],0.90 ng/mL
same,"Higher efficacy than sorafenib, PC-3",[6]; PC-3 prostate cancer cell line,1.7 fold
same,IC50,[6],7 ± 0.6 µM
same,IC50,[7],4 ± 0.2 µM
same,IC50,[8],8 ± 0.7 µM
same,Tub %inh,[9]; conc 0.1 (unit not given),16.5%
same,Tub K.Activity,[9]; conc 0.1 (unit not given),100.18
same,Tub %inh,[9]; conc 1 (unit not given),39.4%
same,Tub K.Activity,[9]; conc 1 (unit not given),72.71
same,Tub %inh,[9]; conc 10 (unit not given),60.5%
same,Tub K.Activity,[9]; conc 10 (unit not given),47.391
same,Tub %inh,[9]; conc 50 (unit not given),78.9%
same,Tub K.Activity,[9]; conc 50 (unit not given),25.374
same,Tub %inh,[9]; conc 100 (unit not given),92.7%
same,Tub K.Activity,[9]; conc 100 (unit not given),8.7594
"Cc1nc(SCC(=O)Nc2nccs2)sc1C(=O)/C=C/c1ccc(Cl)cc1 [Compound 13b, (E)-2-((5-(3-(4-chlorophenyl)acryloyl)-4-methylthiazol-2-yl)thio)-N-(thiazol-2-yl)acetamide]","viability at 96 h, 50 µM",[1],87%
same,Average of Relative viability of cells (%),"[6]; PC-3, 1.56 µM",100%
same,Average of Relative viability of cells (%),"[6]; PC-3, 3.125 µM",86.4%
same,Average of Relative viability of cells (%),"[6]; PC-3, 6.25 µM",69.2%
same,Average of Relative viability of cells (%),"[6]; PC-3, 12.5 µM",45.8%
same,Average of Relative viability of cells (%),"[6]; PC-3, 25 µM",33.7%
same,Average of Relative viability of cells (%),"[6]; PC-3, 50 µM",25.3%
same,Average of Relative viability of cells (%),"[6]; PC-3, 100 µM",17.1%
same,IC50,[6],14 ± 1.2 µM
same,Average of Relative viability of cells (%),"[7]; MCF-7, 1.56 µM",97.8%
same,Average of Relative viability of cells (%),"[7]; MCF-7, 3.125 µM",83.5%
same,Average of Relative viability of cells (%),"[7]; MCF-7, 6.25 µM",57.1%
same,Average of Relative viability of cells (%),"[7]; MCF-7, 12.5 µM",39.3%
same,Average of Relative viability of cells (%),"[7]; MCF-7, 25 µM",22.6%
same,Average of Relative viability of cells (%),"[7]; MCF-7, 50 µM",14.7%
same,Average of Relative viability of cells (%),"[7]; MCF-7, 100 µM",8.2%
same,IC50,[7],9 ± 0.7 µM
same,Average of Relative viability of cells (%),"[8]; HCT-116, 1.56 µM",100%
same,Average of Relative viability of cells (%),"[8]; HCT-116, 3.125 µM",92.7%
same,Average of Relative viability of cells (%),"[8]; HCT-116, 6.25 µM",73.3%
same,Average of Relative viability of cells (%),"[8]; HCT-116, 12.5 µM",53.2%
same,Average of Relative viability of cells (%),"[8]; HCT-116, 25 µM",39.5%
same,Average of Relative viability of cells (%),"[8]; HCT-116, 50 µM",27.4%
same,Average of Relative viability of cells (%),"[8]; HCT-116, 100 µM",14.3%
same,IC50,[8],17 ± 1.4 µM
same,Average of Relative viability of cells (%),"[10]; MDAMB-231, 1.56 µM",91.7%
same,Average of Relative viability of cells (%),"[10]; MDAMB-231, 3.125 µM",68.9%
same,Average of Relative viability of cells (%),"[10]; MDAMB-231, 6.25 µM",60.5%
same,Average of Relative viability of cells (%),"[10]; MDAMB-231, 12.5 µM",34.6%
same,Average of Relative viability of cells (%),"[10]; MDAMB-231, 25 µM",26.3%
same,Average of Relative viability of cells (%),"[10]; MDAMB-231, 50 µM",17.4%
same,Average of Relative viability of cells (%),"[10]; MDAMB-231, 100 µM",9.2%
same,IC50,[11],8 ± 0.7 µM
same,Reduced potency compared to doxorubicin (GI50),[12],at least 2.5 fold
same,Reduced potency compared to sorafenib (GI50),[12],≥ 1.5 fold
same,IC50,[12],12 µM
same,Tub %inh,[9]; conc 0.1 (unit not given),15.2%
same,Tub K.Activity,[9]; conc 0.1 (unit not given),101.7
same,Tub %inh,[9]; conc 1 (unit not given),32.3%
same,Tub K.Activity,[9]; conc 1 (unit not given),81.254
same,Tub %inh,[9]; conc 10 (unit not given),54.2%
same,Tub K.Activity,[9]; conc 10 (unit not given),54.918
same,Tub %inh,[9]; conc 50 (unit not given),76.9%
same,Tub K.Activity,[9]; conc 50 (unit not given),27.751
same,Tub %inh,[9]; conc 100 (unit not given),92.3%
same,Tub K.Activity,[9]; conc 100 (unit not given),9.196
same,IC50,[9],3.73 ± 0.11 µM
"Cc1nc(SCC(=O)Nc2nccs2)sc1C(=O)/C=C/c1ccc(F)cc1 [Compound 13c, (E)-2-((5-(3-(4-fluorophenyl)acryloyl)-4-methylthiazol-2-yl)thio)-N-(thiazol-2-yl)acetamide]","viability at 96 h, 50 µM",[1],86%
same,Average of Relative viability of cells (%),"[6]; PC-3, 1.56 µM",100%
same,Average of Relative viability of cells (%),"[6]; PC-3, 3.125 µM",99.1%
same,Average of Relative viability of cells (%),"[6]; PC-3, 6.25 µM",87.9%
same,Average of Relative viability of cells (%),"[6]; PC-3, 12.5 µM",67.7%
same,Average of Relative viability of cells (%),"[6]; PC-3, 25 µM",54.6%
same,Average of Relative viability of cells (%),"[6]; PC-3, 50 µM",42.1%
same,Average of Relative viability of cells (%),"[6]; PC-3, 100 µM",28.8%
same,IC50,[6],34 ± 2.1 µM
same,Average of Relative viability of cells (%),"[7]; MCF-7, 1.56 µM",100%
same,Average of Relative viability of cells (%),"[7]; MCF-7, 3.125 µM",96.3%
same,Average of Relative viability of cells (%),"[7]; MCF-7, 6.25 µM",83.0%
same,Average of Relative viability of cells (%),"[7]; MCF-7, 12.5 µM",68.1%
same,Average of Relative viability of cells (%),"[7]; MCF-7, 25 µM",51.6%
same,Average of Relative viability of cells (%),"[7]; MCF-7, 50 µM",36.7%
same,Average of Relative viability of cells (%),"[7]; MCF-7, 100 µM",21.7%
same,IC50,[7],28 ± 1.8 µM
same,Average of Relative viability of cells (%),"[8]; HCT-116, 1.56 µM",100%
same,Average of Relative viability of cells (%),"[8]; HCT-116, 3.125 µM",92.6%
same,Average of Relative viability of cells (%),"[8]; HCT-116, 6.25 µM",73.1%
same,Average of Relative viability of cells (%),"[8]; HCT-116, 12.5 µM",51.3%
same,Average of Relative viability of cells (%),"[8]; HCT-116, 25 µM",42.2%
same,Average of Relative viability of cells (%),"[8]; HCT-116, 50 µM",29.9%
same,Average of Relative viability of cells (%),"[8]; HCT-116, 100 µM",16.1%
same,IC50,[8],18 ± 1.4 µM
same,Average of Relative viability of cells (%),"[10]; MDAMB-231, 1.56 µM",100%
same,Average of Relative viability of cells (%),"[10]; MDAMB-231, 3.125 µM",93.3%
same,Average of Relative viability of cells (%),"[10]; MDAMB-231, 6.25 µM",71.6%
same,Average of Relative viability of cells (%),"[10]; MDAMB-231, 12.5 µM",54.8%
same,Average of Relative viability of cells (%),"[10]; MDAMB-231, 25 µM",50.1%
same,Average of Relative viability of cells (%),"[10]; MDAMB-231, 50 µM",38.9%
same,Average of Relative viability of cells (%),"[10]; MDAMB-231, 100 µM",19.6%
same,IC50,[11],23 ± 1.7 µM
same,Reduced potency compared to doxorubicin (GI50),[12],at least 2.5 fold
same,Reduced potency compared to sorafenib (GI50),[12],≥ 1.5 fold
same,IC50,[12],26 µM
same,Tub %inh,[9]; conc 0.1 (unit not given),6.12%
same,Tub K.Activity,[9]; conc 0.1 (unit not given),112.66
same,Tub %inh,[9]; conc 1 (unit not given),27.4%
same,Tub K.Activity,[9]; conc 1 (unit not given),87.115
same,Tub %inh,[9]; conc 10 (unit not given),48.8%
same,Tub K.Activity,[9]; conc 10 (unit not given),61.436
same,Tub %inh,[9]; conc 50 (unit not given),71.2%
same,Tub K.Activity,[9]; conc 50 (unit not given),34.549
same,Tub %inh,[9]; conc 100 (unit not given),90.8%
same,Tub K.Activity,[9]; conc 100 (unit not given),10.995
same,IC50,[9],6.05 ± 0.18 µM
"CN[C@@H]1C[C@H]2O[C@@](C)([C@@H]1OC)n1c3ccccc3c3c4c(c5c6ccccc6n2c5c31)C(=O)NC4 [Staurosporine, reference compound]",Caspase-3 Conc,[2],510 ± 4 pg/mL
same,Caspase-3 Fold change,[2]; relative to untreated control,8 fold
same,Caspase-9 Conc,[3],1.30 ± 0.10 ng/mL
same,Caspase-9 Fold change,[3]; relative to untreated control,13 fold
same,Caspase-9 Conc,[3]; listed as staurosporine,1.30 ng/mL
same,Bax Conc,[4],280 ± 7 pg/mL
same,Bax Fold change,[4]; relative to untreated control,35 fold
same,Bax Conc,[4]; listed as staurosporine,280 pg/mL
same,Bcl-2 Conc,[5],1.10 ng/mL
same,Bcl-2 Fold reduction,[5]; relative to untreated control,5 fold
